The values that follow come from US4916145A, “Substituted n-[(pyridyl)alkyl]aryl-carboxamide” (Hoffmann-La Roche Inc., priority 1987, dated 1990).

Molecules are shown by their SMILES.

Assay [1] relates to PAF-Induced Bronchoconstriction. The assay is described as follows: PAF-Induced Bronchoconstriction Assay. Type of assay: in vivo, guinea pig. The settings on record: Cavia porcellus; for inhibition in vivo at 1 mg/kg: 1 min, 1 mg/kg iv, 1 minute pretreatment. The method, then: The in vivo ability of compounds to inhibit PAF-induced bronchoconstriction in guinea pigs was assessed by the intravenous and oral routes of administration. The intravenous technique utilized male guinea pigs (Hartley strain, Charles River) weighing 400-600 g. Animals were anesthetized with urethane (2 g/kg) intraperitoneally and a polyethylene cannula was inserted into the jugular vein for intravenous drug administration. Tracheal pressure ([…]) was recorded from a Statham pressure transducer (P 32 AA). Propranolol was administered 5 minutes prior to challenge with PAF. Two minutes later spontaneous breathing was arrested with succinylcholine chloride (1.2 mg/kg) administered intravenously, and the animals were ventilated with a Harvard (Model 680) small animal respirator set at 40 breaths/min and 4.0 cc stroke volume. Control vehicle or test drug was administered through the cannula into the jugular vein 1 minute before the animals were challenged with a maximum constrictory dose of PAF (1.0 μg/kg) given intravenously. The change in tracheal pressure was averaged for four control and four drug-treated animals and percent inhibition was calculated.
For determination of oral activity, animals were dosed with test compound or vehicle two hours prior to challenge with PAF (1.0 μg/kg, i.v.).
The change in tracheal pressure is determined by subtracting the steady state baseline achieved after administration of succinylcholine from the peak bronchoconstriction seen after challenge with PAF. The mean change in tracheal pressure is calculated for each test compound and compared to the mean change in tracheal pressure for the control animals to give the percent inhibition of bronchoconstriction. The standard error is calculated as the standard error of the mean.

Assay [2] has as its system PAF-Induced Platelet Count Decrease. The assay is described as follows: PAF-Induced Platelet Count Decrease. Type of assay: in vivo, guinea pig. The settings on record: for inhibition in vivo at 3 mg/kg: Cavia porcellus, Platelet, 0.25 h, iv, 15 minutes pretreatment time, read-out: PAF-Induced Platelet Count Decrease % Inhibition, i.v. As to the method: Male Hartley guinea pigs weighing between 500 and 900 grams were fed standard guinea pig chow and tap water ad libitum. PAF was solubilized in ethanol and stored as a 2 mM stock solution at -70° C. The stock solution of PAF was diluted to […] in Tris buffer pH 7.4 and 0.1% BSA for all experiments.
Guinea pigs were anesthetized with urethane (1.6 g/kg, i.p.). A catheter (PE50) was introduced into the right carotid artery for withdrawing blood. A second catheter PE10) was introduced into the jugular vein for injecting drugs and for administering the PAF challenge (75 ng/kg, i.v.). A control blood sample was obtained and platelets were counted in a whole blood platelet analyzer. PAF was then given and blood samples were taken 15, 30, and 60 seconds after the challenge for platelet counts. Fifteen minutes later, selected concentrations of the test compound were solubilized in DMSO and injected intravenously into a group of 4-6 animals. Only one concentration of the test drug was used in each animal group. Fifteen minutes after drug injection, blood samples were taken before and 15, 30, and 60 sec after the PAF challenge, and analyzed for platelet number.
Animals were anesthetized with sodium pentobarbital (35 mg/kg. i.p.) and the carotid artery and jugular vein were cannulated as described above. The cannulae were exteriorized at the base of the neck and the animals were allowed to recover. Conscious, unrestrained guinea pigs which were allowed to recover from surgery for at least 18 hours were used in the experiments. The animals were challenged two times with PAF (120 ng/kg, i.v.); the first to establish a consistent response to PAF and the second to serve as a control from the PAF challenge. Blood samples were taken before and 15, 30, and 45 seconds after PAF challenge and platelets were counted. Thirty minutes after the control PAF challenge, the animals were orally dosed with either gum acacia or the test compound. Animals were then challenged with PAF at 1, 3, 5, and 24 hours after the administration of the drug.
The % change, i.e., the difference in platelet number before and after PAF challenge was calculated by: [formula] The % activity of drug was then determined by
Statistical significance (p≤0.05) of the difference between the mean PAF control and mean drug treated activity was determined with the pared Students's t-test.

The target in assay [3] is T1, PAF binding, dog platelets (Canis lupus familiaris, UniProt A0A8I3NSH0).
T1 sequence (A0A8I3NSH0 1-343): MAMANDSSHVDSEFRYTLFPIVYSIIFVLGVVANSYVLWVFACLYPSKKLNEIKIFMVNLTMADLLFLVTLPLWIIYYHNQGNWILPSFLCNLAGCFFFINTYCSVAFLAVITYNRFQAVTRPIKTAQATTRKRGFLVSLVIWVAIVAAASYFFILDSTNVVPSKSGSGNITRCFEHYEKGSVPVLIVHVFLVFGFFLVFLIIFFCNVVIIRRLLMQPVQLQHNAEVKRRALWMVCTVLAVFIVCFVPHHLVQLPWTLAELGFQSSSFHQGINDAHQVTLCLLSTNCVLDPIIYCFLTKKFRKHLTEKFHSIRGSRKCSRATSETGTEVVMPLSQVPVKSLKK
The experiment in a line: PAF Binding Assay (3H-PAF binding to washed dog platelets). The settings on record: 10 minutes at room temperature.
Method: The binding assay was performed in 400 μl polyethylene microcentrifuge tubes (Beckman) containing 50 μl of an oil mixture of 2 parts Siliconol AR200 (Serva): 1 part Silicone Fluid (Arthur H. Thomas). Buffer, standards, or analogs 150 μl total volume) were added to the tubes. Radiolabelled ^3 H-PAF (50 μl) was then added to the tubes. The reaction was started by the addition of 50 μl of dog platelets (2×10^7 platelets). The tubes were capped, inverted several times to mix, and incubated for 10 minutes at room temperature. The platelets were separated from the incubation mixture by centrifuging 1 minute in a Beckman Microfuge B centrifuge. The tip of the microfuge tube was cut off, and the platelets were washed out of the tip with 200 μl of 50% methanol (Burdick and Jackson). Aquasol (NEN, 10 ml) was added and the radioactivity in the samples was determined using an LS 8100 Beckman liquid scintillation counter linked to a Techtran tape recorder. Data was processed through an in-house computer system. Alternatively, radioactivity was determined using a Searle Mark III liquid scintillation counter linked to a Iso-Data microprocessor.
Blood was collected from anesthesized or unanesthesized dogs into 5ml plastic centrifuge tubes containing 3.8% sodium citrate as the anticoagulant (1 volume of citrate/9 volumes of blood). The red cells were removed by centrifugation for 15 minutes at 600 rpm (100-125 g) at room temperature. An aliquot of the supernatant platelet rich Plasma (PRP) was saved for cell counting and the remainder was acidified to pH 6.5 with 0.15M citric acid. The platelet pellet was obtained after a 10 minute centrifugation at 2000 rpm (1000 g) at room temperature. Washed platelets were prepared by resuspending the platelet pellet once with PBS containing 1 mM EDTA, centrifuging as noted, and then resuspending the platelets in 0.1% BSA-PBS. An aliquot of the washed platelets was counted, platelets used for binding assays were diluted to 2×10^7 platelets/assay tube (4×10^8 platelets/ml).

`O=C(NCCCCc1cccnc1)c1ccc(-c2ccccc2)c(-c2ccccc2)c1` [3,4-Diphenyl-N-[4-(3-pyridinyl)butyl]-benzamide]: the inhibition in vivo at 1 mg/kg in assay [1] was 21 ± 4%. In assay [1] (50 mg/kg, po, 2 hours pretreatment), the inhibition in vivo at 50 mg/kg was determined as 33 ± 12%. In assay [2], the inhibition in vivo at 3 mg/kg was 49%.

The IC50 is the concentration that inhibits the measured activity by half. Read a low IC50 as higher potency. Compound `Cc1ccc(-c2ccc(C(=S)NC(C)CCCc3cccnc3)cc2)cc1C` (racemic) [rac.-3',4'-Dimethyl-N-[1-methyl-4-(3-pyridinyl)butyl][1,1'-biphenyl]-4-carbothioamide] returned a half-maximal inhibitory concentration (IC50) in assay [3] of 110 nM. Further, in assay [1], the inhibition in vivo at 1 mg/kg was 4 ± 4%. Moreover, the inhibition in vivo at 3 mg/kg in assay [2] amounted to 28%.

Turning to `COc1ccc(-c2ccc(C(=O)NC(C)CCCc3cccnc3)cc2)cc1OC` (racemic) [(rac.)-3',4'-Dimethoxy-N-[1-methyl-4-(3-pyridinyl)butyl][1,1'-biphenyl]-4-carboxamide], in assay [2], the inhibition in vivo at 3 mg/kg was 26%. Also, the “PAF-Induced Platelet Count Decrease % Inhibition, po” value in assay [2] (po, no dose footnote printed) was determined as 75 ± 21%.

Compound `COc1cccc(-c2ccc(C(=O)N[C@H](C)CCCc3cccnc3)cc2)c1` [(R)-3'-Methoxy-N-[1-methyl-4-(3-pyridinyl)butyl]-[1,1'-biphenyl]-4-carboxamide] displayed an IC50 in assay [3] of 20 nM. The inhibition in vivo at 3 mg/kg in assay [2] stood at 17%.

`COc1ccc(-c2cc(C)c(C(=O)NCCCCc3cccnc3)c(C)c2)cc1OC` [3',4'Dimethoxy-3,5-dimethyl-N-[4-(3-pyridinyl)butyl][1,1'-biphenyl]-4-carboxamide] displayed an IC50 in assay [3] of 60 nM. In addition, the inhibition in vivo at 1 mg/kg in assay [1] was determined as 17 ± 11%. Besides, in assay [2], the inhibition in vivo at 3 mg/kg is 14%.

Regarding `COc1cccc(-c2ccc(C(=O)NCCCCc3cccnc3)cc2-c2cccc(OC)c2)c1` [3,4-bis-(3-Methoxyphenyl)-N-[4-(3-pyridinyl)butyl]-benzamide], the inhibition in vivo at 1 mg/kg in assay [1] stood at 12 ± 6%. The inhibition in vivo at 3 mg/kg in assay [2] was found to be 4%.
